Measured values reported in US4761414A, “Substituted 1H-pyrimido[1,2-a-]-pyrido[3,4-e]pyrazine 6 oxides” (G. D. Searle & Co., priority 1986, dated 1988).
Values after ≈ are worked out from the molar mass of the structure shown. Like-named read-outs stand apart in the source and are kept apart here.

What was measured:
B. fragilis NCTC 10581 = test: MIC/MBC against Bacteroides fragilis strain A (96-well microtitre plates, anaerobic chamber); type: cell-based; conditions: Bacteroides fragilis; for MBC: NCTC10581, 99.9% reduction in viable count; for MIC: NCTC10581, 48 h, 48 hours, 37° C., anaerobic
Procedure: (§1) The screening panel utilized in this Example consisted of 5 strains of Bacteroides fragilis. All assays were carried out in 96-well microtitre plates. If an isolate was obtained from either a culture collection or clinical source, the isolate was immediately inoculated into Wilkens-Chalgren broth (Oxoid) and incubated at 37° C. in an anaerobic chamber in an atmosphere of 85% nitrogen, 10% carbon dioxide, and 5% hydrogen for 48 hours. At the end of this time, the viable count was about 10^12 organisms/ml broth. A 1 ml aliquot of each culture was placed in an ampoule and quick frozen in acetone-dry ice mixture and stored in liquid nitrogen. When an inoculum was utilized in an assay, one of the ampoules was thawed and diluted with fresh broth to yield a suspension having a count of 5×10^5 organisms/ml. A 100 μl aliquot of this suspension was inoculated into each well of the microtitre plate. A 2 mg sample of the test compound was dissolved in 0.2 ml of a suitable solvent such as dimethylsulfoxide, polyethylene glycol 200 or methanol. […] After addition of the test solution the final inoculum level was 10^5 cells/ml. The plates were incubated for 48 hours at 37° C. in the anaerobic chamber. The Minimum Inhibitory Concentration (MIC) was read visually. The MIC is defined as the lowest concentration at which there is no detectable growth. The Minimum Bactericidal Concentration (MBC) was determined by taking 50 μl aliquot from each well and placing it in fresh medium. […] The strains of Bacteroides fragilis utilized in the above procedure are identified by letter in accordance with the following legend: |A B. fragilis NCTC 10581

B. fragilis NCTC 9344 = test: MIC/MBC against Bacteroides fragilis strain C; type: cell-based; conditions: for MBC: NCTC9344, 99.9% reduction in viable count; for MIC: NCTC9344, 48 h, 48 hours, 37° C., anaerobic
Procedure: as §1, with “|C” for “|A”, “9344” for “10581”

[1] = tested on: B. fragilis MZ-R ATCC 11295; test: MIC/MBC against Bacteroides fragilis strain D; type: cell-based; conditions: for MBC: ATCC11295, 99.9% reduction in viable count; for MIC: ATCC11295, 48 h, 48 hours, 37° C., anaerobic
Procedure: The screening panel utilized in this Example consisted of 5 strains of Bacteroides fragilis. All assays were carried out in 96-well microtitre plates. If an isolate was obtained from either a culture collection or clinical source, the isolate was immediately inoculated into Wilkens-Chalgren broth (Oxoid) and incubated at 37° C. in an anaerobic chamber in an atmosphere of 85% nitrogen, 10% carbon dioxide, and 5% hydrogen for 48 hours. At the end of this time, the viable count was about 10^12 organisms/ml broth. A 1 ml aliquot of each culture was placed in an ampoule and quick frozen in acetone-dry ice mixture and stored in liquid nitrogen. When an inoculum was utilized in an assay, one of the ampoules was thawed and diluted with fresh broth to yield a suspension having a count of 5×10^5 organisms/ml. A 100 μl aliquot of this suspension was inoculated into each well of the microtitre plate. A 2 mg sample of the test compound was dissolved in 0.2 ml of a suitable solvent such as dimethylsulfoxide, polyethylene glycol 200 or methanol. […] After addition of the test solution the final inoculum level was 10^5 cells/ml. The plates were incubated for 48 hours at 37° C. in the anaerobic chamber. The Minimum Inhibitory Concentration (MIC) was read visually. The MIC is defined as the lowest concentration at which there is no detectable growth. The Minimum Bactericidal Concentration (MBC) was determined by taking 50 μl aliquot from each well and placing it in fresh medium.

[2] = tested on: Clostridium perfringens NCTC 8237; test: microbe, parasite or virus in culture; type: cell-based; conditions: Clostridium perfringens, NCTC8237, Clostridium perfringens NCTC 8237; procedures of Example 40
[3] = tested on: Costridium difficile NCIB 10666; test: MIC vs panel of anaerobes; type: cell-based, C. difficile; conditions: Clostridioides difficile, NCIB10666, C. difficile NCIB 10666; procedures of Example 40; read-out: MIC
[4] = tested on: Campylobacter fetus ss. jejuni NCTC 10842; test: MIC vs panel of anaerobes; type: cell-based; conditions: NCTC10842, procedures of Example 40
[5] = tested on: Fusobacterium necrophorum ATCC 11295; test: MIC vs panel of anaerobes; type: cell-based; conditions: Fusobacterium necrophorum, ATCC11295, Fusobacterium necrophorum ATCC 11295; procedures of Example 40; read-out: MIC
[6] = tested on: Propionebacterium acnes NCTC 737; test: MIC vs panel of anaerobes; type: cell-based; conditions: procedures of Example 40
B. fragilis 23745 = conditions: Bacteroides fragilis, 23745, in Mus musculus, po, 48 h, log CFU/ml liver homogenate, test compound
[7] = read-out: DOSE GIVING 1 LOG REDUCTION (molar), p.o., after infection and twice daily for 2 days
[8] = read-out: DOSE GIVING 1 LOG REDUCTION, p.o., after infection and twice daily for 2 days

SMILES | MBC (B. fragilis NCTC 10581) [µg/mL] | MIC (B. fragilis NCTC 10581) [µg/mL] | MBC (B. fragilis NCTC 9344) [µg/mL] | MIC (B. fragilis NCTC 9344) [µg/mL] | MBC [1] [µg/mL] | MIC [1] [µg/mL] | MIC [2] [µg/mL] | MIC [3] [µg/mL] | MIC [4] [µg/mL] | MIC [5] [µg/mL] | MIC [6] [µg/mL] | ED (1 log reduction) (B. fragilis 23745; [7]) [µmol/kg] | ED (1 log reduction) (B. fragilis 23745; [8]) [mg/kg]
Cc1ccc(C2=[N+]([O-])c3cccnc3N3CC(C)(C)CN=C23)cc1 [Example 20, 2,3-Dihydro-2,2-dimethyl-5-(4-methylphenyl)-1H-pyrimido[1,2-a]pyrido[3,2-e]pyrazine 6-oxide] | < 0.8 | < 0.8 | 1.5 (≈ 4.68 µM) | 1.5 (≈ 4.68 µM) | < 0.8 | < 0.8 | 1.5 (≈ 4.68 µM) | < 0.8 | 6.2 (≈ 19.4 µM) | 1.5 (≈ 4.68 µM) | > 100 | 13 | 4.2
COc1ccc(C2=[N+]([O-])c3cccnc3N3CC(C)(C)CN=C23)cc1OC [Example 22, 2,3-Dihydro-5-(3,4-dimethoxyphenyl)-2,2-dimethyl-1H-pyrimido[1,2-a]pyrido[3,2-e]pyrazine 6-oxide] | 1.5 (≈ 4.09 µM) | 1.5 (≈ 4.09 µM) | < 0.8 | < 0.8 | < 0.8 | < 0.8 | 6.2 (≈ 16.9 µM) | < 0.8 | 50 (≈ 136 µM) | < 0.8 | > 100 | 7.3 | 2.7
CCC1(CC)CN=C2C(c3ccccc3)=[N+]([O-])c3cnccc3N2C1 [Example 25, 2,3-Dihydro-2,2-diethyl-5-phenyl-1H-pyrimido[1,2-a]pyrido[3,4-e]pyrazine 6-oxide] | 3.1 (≈ 9.27 µM) | 1.5 (≈ 4.49 µM) | 1.5 (≈ 4.49 µM) | 1.5 (≈ 4.49 µM) | 1.5 (≈ 4.49 µM) | 1.5 (≈ 4.49 µM) | 3.1 (≈ 9.27 µM) | 1.5 (≈ 4.49 µM) | 6.2 (≈ 18.5 µM) | 31 (≈ 92.7 µM) | > 100 | 5.75 | 1.9
CC1(C)CN=C2C(c3ccc(Cl)cc3)=[N+]([O-])c3cnccc3N2C1 [Example 17, 2,3-Dihydro-5-(4-chlorophenyl)-2,2-dimethyl-1H-pyrimido[1,2-a]pyrido[3,4-e]pyrazine 6-oxide] | < 0.8 | < 0.8 | < 0.8 | < 0.8 | < 0.8 | < 0.8 | 6.2 (≈ 18.2 µM) | < 0.8 | 50 (≈ 147 µM) | 3.1 (≈ 9.1 µM) | > 100 | 9.3 | 3.2
CCC1(C)CN=C2C(c3ccccc3)=[N+]([O-])c3cccnc3N2C1 (stereo not shown) [Example 24, 2,3-Dihydro-2-ethyl-2-methyl-5-phenyl-1H-pyrimido[1,2-a]pyrido[3,2-e]pyrazine 6-oxide] | < 0.8 | < 0.8 | < 0.8 | < 0.8 | < 0.8 | < 0.8 | 6.2 (≈ 19.4 µM) | < 0.8 | 100 (≈ 312 µM) | < 0.8 | 100 (≈ 312 µM) | 6.8 | 2.2
CC1(C)CN=C2C(c3ccc(F)cc3)=[N+]([O-])c3cccnc3N2C1 [Example 31, 2,3-Dihydro-2,2-dimethyl-5-(4-fluorophenyl)-1H-pyrimido[1,2-a]pyrido[3,2-e]pyrazine 6-oxide] | < 0.8 | < 0.8 | < 0.8 | < 0.8 | < 0.8 | < 0.8 | 12.5 (≈ 38.5 µM) | < 0.8 | 50 (≈ 154 µM) | 3.1 (≈ 9.56 µM) | > 100 | 3 | 1
[O-][N+]1=C(c2ccccc2)C2=NCC3(CCCCC3)CN2c2ccncc21 [Example 30, Spiro[cyclohexane-1,2'-[2,3]-dihydro-[5]-phenyl-[1H]pyrimido[1,2-a]pyrido[3,4-e]pyrazine [6]-oxide]] | < 0.8 | < 0.8 | < 0.8 | < 0.8 | < 0.8 | < 0.8 | 12.5 (≈ 36.1 µM) | < 0.8 | 100 (≈ 289 µM) | 3.1 (≈ 8.95 µM) | > 100 | – | –
CCC1(C)CN=C2C(c3ccccc3)=[N+]([O-])c3cnccc3N2C1 (stereo not shown) [Example 23, 2,3-Dihydro-2-ethyl-2-methyl-5-phenyl-1H-pyrimido[1,2-a]pyrido[3,4-e]pyrazine 6-oxide] | 1.5 (≈ 4.68 µM) | 1.5 (≈ 4.68 µM) | < 0.8 | < 0.8 | < 0.8 | < 0.8 | 6.2 (≈ 19.4 µM) | 1.5 (≈ 4.68 µM) | 100 (≈ 312 µM) | < 0.8 | > 100 | 6 | 1.9
CCC1(CC)CN=C2C(c3ccccc3)=[N+]([O-])c3cccnc3N2C1 [Example 26, 2,3-Dihydro-2,2-diethyl-5-phenyl-1H-pyrimido[1,2-a]pyrido[3,2-e]pyrazine 6-oxide] | < 0.8 | < 0.8 | < 0.8 | < 0.8 | < 0.8 | < 0.8 | 1.5 (≈ 4.49 µM) | < 0.8 | 25 (≈ 74.8 µM) | 1.5 (≈ 4.49 µM) | 100 (≈ 299 µM) | 10.1 | 3.4
